Results as given in patent US20250376659A1, “DERIVATION OF SOMATOTROPHS FROM STEM CELLS AND USES THEREOF” (MEMORIAL SLOAN-KETTERING CANCER CENTER, priority 2017, published 2025).
“Also recorded” adds a separate entry of the source. No end group written: not given here.

B1: IL10: interleukin (protein, UniProt P22301 19-178, looked up)
Interleukin-10: SPGQGTQSENSCTHFPGNLPNMLRDLRDAFSRVKTFFQMKDQLDNLLLKESLLEDFKGYLGCQALSEMIQFYLEEVMPQAENQDPDIKAHVNSLGENLKTLRLRLRRCHRFLPCENKSKAVEQVKNAFNKLQEKGIYKAMSEFDIFINYIEAYMTMKIRN
B2: FGF8: activator of FGF signaling, dorsalizing agent (protein, UniProt P55075 23-233, looked up)
Fibroblast growth factor 8: QEGPGRGPALGRELASLFRAGREPQGVSQQHVREQSLVTDQLSRRLIRTYQLYSRTSGKHVQVLANKRINAMAEDGDPFAKLIVETDTFGSRVRVRGAETGLYICMNKKGKLIAKSNGKGKDCVFTEIVLENNYTALQNAKYEGWYMAFTRKGRPRKGSKTRQHQREVHFMKRLPRGHHTTEQSLRFEFLNYPPFTRSLRGSQRTWAPEPR

Assays:
Human ES or iPS cells = test: Marker gene expression during step-wise differentiation of human pluripotent stem cells to somatotrophs; format: cell-based; details: for GH1 expression: FIG. 6, 7A, 7B, 16; for GH1 expression / PIT1 expression: compared with the control group; for PIT1 expression: FIG. 4, FIG. 5, FIG. 16
Experimental: Human ES or iPS cells were expanded in E8 media on matrigel.
On day 0, cells were changed to E6 media where BMP4 (5 ng/ml) and SB43152 (10 μM) were added, with daily medium and factors change.
On day 3, BMP4 was removed and the following factors added: FGF8 (100 ng/ml); FGF10 (50 ng/ml); FGF18 (50 ng/ml); Sonic hedgehog (SHH) (100 ng/ml) or SAG (Smoothened Agonist) (100 nM); LDN193189 (250 nM). Media and factors were changed every other day.
Media and factors are changed every other day.
(§1) On day 15, the following factors were used: Retinoic acid (1 μM); Thyroid hormone T3 (10 nM); Dexamethasone (1 μM); cyclic AMP (100 μg/ml); DPN (0.1 nM); Growth Hormone Releasing Hormone (GHRH) (1 μM). Media and factors were changed every other day.
On day 29, the cells entered the maturation phase and could be maintained in the same factors for a variable period ranging from 1-4 weeks. […] They could be subjected to FACS sorting for GHRH in order to obtain a pure cell population of somatotrophs. Cells remained on matrigel for the duration of the protocol.
In order to derive GH cells, the strategy was to first differentiate human pluripotent stem cells to pre-placodal ectoderm and anterior pituitary progenitors. The cells were further differentiated to PROP1 lineage, and then to PIT1 lineage. The cells were then terminally differentiated to GH cells. The step-wise protocol to differentiate pluripotent stem cells into growth hormone secreting cells involved promoting Prop1 expression in anterior pituitary progenitors, activating POU1F1 (PIT1), directing cell differentiation to growth hormone expressing cells. The growth hormone expressing cells were also further matured via prolonged incubation. The key markers to monitor the process of differentiation comprised Prop1, POU1F1 (PIT1), GH and GHRHR.
For example, the first step was to induce non-neural ectoderm by BMP4 and inhibitor of TGF-β/Activin/NODAL pathway (e.g., SB431542). Then the cells were subjected to inhibitor of TGF-β/Activin/NODAL pathway (e.g., SB431542), FGF8/10/18, SHH agonist (e.g., SHH), and a SMAD inhibitor (e.g., LDN 193189) to induce anterior pituitary progenitors, which were characterized by PITX1/2, LHX3/4 and PROP1 expression.
For selective differentiation to somatotrophs, retinoic acid were used to suppress POMC expressed by corticotrophs and to promote GH1 expression which is expressed by somatotrophs. In addition, the corticosteroid (e.g., Dexamethasone) and thyroid hormone (e.g., T3) were added to the medium to inhibit PRL (expressed by lactotroph) and TSH (expressed by thyrotroph), while promoting GH1 expression.

somatotrophs = test: GHRH stimulation of stem-cell-derived GH cell population; format: cell-based, human; details: cell population after growth hormone induction, FIG. 8 lower right panel
Experimental: as §1
On day 29, the cells entered the maturation phase and could be maintained in the same factors for a variable period ranging from 1-4 weeks. Cells at this stage expressed GHRH receptors (GHRHR). They could be subjected to FACS sorting for GHRH in order to obtain a pure cell population of somatotrophs. Cells remained on matrigel for the duration of the protocol.
After this step, the majority population in culture were somatotrophs which expressed the somatotroph marker GH1 and secreted growth hormone in the supernatant. The phenotype of the population is shown FIG. 8. The cell population expressed high amount of GH and GHRHR, and low amount of TSH, PRL and LH. GH expression was further increased upon GHRH stimulation (FIG. 8, lower right panel).

rodent GSK3β homologs = details: cited from earlier work

| Molecule | GH1 expression (Human ES or iPS cells) | PIT1 expression (Human ES or iPS cells) | other results |
| --- | --- | --- | --- |
| C[C@]12C[C@H](O)[C@H]3[C@@H](CCC4=CC(=O)CC[C@@]43C)[C@@H]1CC[C@@H]2C(=O)CO [corticosterone, reference compound] |  |  | PRL expression (Human ES or iPS cells; FIG. 7D, p-value<0.01 compared with the control groups): significantly reduced |
| Ghrelin: Ghrelin signaling pathway agonist (GSSFLSPEHQRVQQRKESKKPPAKLQPR; ends and bridges not checked; UniProt Q9UBU3 24-51, looked up) | promoting |  |  |
| GHRH: Growth Hormone Releasing Hormone, GHRH signaling pathway agonist (YADAIFTNSYRKVLGQLSARKLLQDIMSRQQGESNQERGARARL; ends and bridges not checked; UniProt P01286 32-75, looked up) | significantly increased; also recorded: further promoted |  | GH expression upon GHRH stimulation (somatotrophs): increased |
| IL 6: interleukin | increased | increased |  |
| Cc1c[nH]c(-c2cnc(NCCNc3ccc(C#N)cn3)nc2-c2ccc(Cl)cc2Cl)n1 [CHIR99021, 6-(2-(4-(2,4-dichlorophenyl)-5-(4-methyl-1H-imidazol-2-yl)pyrimidin-2-ylamino)ethylamino) nicotinonitrile, reference compound] |  | induce | IC50 values against rodent GSK3β homologs (rodent GSK3β homologs): nanomolar |
| N#CC(Cc1ccc(O)cc1)c1ccc(O)cc1 (stereo not drawn) [DPN, 2,3-bis(4-hydroxyphenyl) propionitrile, reference compound] | further promoted |  |  |
| N[C@@H](Cc1cc(I)c(Oc2ccc(O)c(I)c2)c(I)c1)C(=O)O [T3, reference compound] |  |  | TSH-β expression (Human ES or iPS cells; FIG. 7C, p-value<0.01 compared with the control groups): significantly reduced |
| B1 | increased | increased |  |
| B2 |  | downregulated | PROP1 expression (Human ES or iPS cells; FIG. 3, FIG. 5): maintained; POMC expression (Human ES or iPS cells; FIG. 5): upregulated |
